Assay: xn = mol fraction of the nth substance listed
Details: Liquid, Vibrating tube method

CCCCCCC [heptane] + CCO
mass density [kg/m3]
Details	100 kPa	500 kPa	5000 kPa	10000 kPa	15000 kPa	20000 kPa	25000 kPa	30000 kPa	35000 kPa	40000 kPa
293.15 K, x1 = 0.2505	737.7	738.1	742.1	746.4	750.4	754.3	757.9	761.4	764.7	768
293.15 K, x1 = 0.5004	711	711.3	715.4	719.8	723.8	727.7	731.3	734.8	738.1	741.4
293.15 K, x1 = 0.7501	694.3	694.6	698.7	703	707.1	710.9	714.6	718	721.4	724.6
303.15 K, x1 = 0.2505	728.9	729.3	733.6	738.2	742.4	746.5	750.3	754	757.5	760.8
303.15 K, x1 = 0.5004	702.1	702.5	706.9	711.5	715.8	719.9	723.8	727.4	730.9	734.3
303.15 K, x1 = 0.7501	685.4	685.8	690.3	694.9	699.2	703.3	707.1	710.8	714.3	717.6
313.15 K, x1 = 0.2505	719.9	720.3	725	729.8	734.3	738.6	742.6	746.5	750.1	753.7
313.15 K, x1 = 0.5004	693	693.4	698.2	703.1	707.7	712	716.1	720	723.7	727.2
313.15 K, x1 = 0.7501	676.4	676.9	681.6	686.6	691.2	695.5	699.6	703.4	707.1	710.6
323.15 K, x1 = 0.2505	710.6	711.1	716.1	721.2	726.1	730.6	734.8	738.9	742.7	746.4
323.15 K, x1 = 0.5004	683.6	684.1	689.2	694.5	699.4	704	708.4	712.4	716.3	720.1
323.15 K, x1 = 0.7501	667.2	667.6	672.8	678.1	683	687.7	692	696	699.9	703.6
333.15 K, x1 = 0.2505	701.1	701.6	706.9	712.5	717.6	722.4	726.9	731.2	735.2	739.1
333.15 K, x1 = 0.5004	674	674.5	680	685.7	691	695.9	700.5	704.8	708.9	712.8
333.15 K, x1 = 0.7501	657.7	658.2	663.8	669.6	674.9	679.8	684.3	688.6	692.7	696.6
353.15 K, x1 = 0.2505	–	681.4	687.7	694.1	700	705.5	710.5	715.3	719.7	724
353.15 K, x1 = 0.5004	–	654.2	660.8	667.5	673.6	679.1	684.3	689.1	693.7	698.1
353.15 K, x1 = 0.7501	–	638.4	645.1	651.8	657.9	663.5	668.6	673.4	678	682.3
373.15 K, x1 = 0.2505	–	659.3	666.9	674.5	681.4	687.6	693.3	698.6	703.6	708.4
373.15 K, x1 = 0.5004	–	632.2	640.2	648.1	655.3	661.7	667.5	672.9	678	682.9
373.15 K, x1 = 0.7501	–	617.2	625.3	633.3	640.4	646.8	652.6	658	663	667.9
